The numbers were not newly measured in patent US20230081296A1, “STABLE NON-AQUEOUS COMPOSITIONS OF PLANTS EXTRACTS AND METHODS OF MAKING THE SAME” (Nulixir Inc., priority 2021, published 2023), which cites them from elsewhere.

The conditions of this data set: reference phases water and n-octanol; categorization assumed at pH = 7 unless stated otherwise.
Take `COc1cc2c(c(OC)c1OC)-c1c(cc3c(c1OC)OCO3)CC(C)C(C)C2` (single isomer, unassigned; (-)) [(-)-schisandrin B]: the lipophilicity (logP) is ~4. For the compound `COc1cc(/C=C/c2ccccc2)oc(=O)c1` [5,6-dehydrokawain], the logP is given as ~2.9.

Turning to `COC1=CC(=O)OC(/C=C/c2ccc(OC)cc2)C1` (centres unmarked) [5,6-dihydroyangonin], the logP is reported as ~2.5. In the case of `CC1=C(CO)C(=O)O[C@@H]([C@@H](C)[C@H]2CC[C@H]3[C@@H]4C[C@H](Cl)[C@]5(O)[C@@H](O)C=CC(=O)[C@]5(C)[C@H]4CC[C@]23C)C1` [6a-chloro-5b-hydroxywithaferin A], the lipophilicity (logP) was ~3.2. For the compound `COC1=CC(=O)O[C@@H](CCc2ccc3c(c2)OCO3)C1` [7,8-dihydromethysticin], the lipophilicity (logP) is on record as ~2.2. For `COc1ccc(CCc2cc(OC)cc(=O)o2)cc1` [7,8-dihydroyangonin], the lipophilicity (logP) is recorded as ~2.9.

With `COc1cc(/C=C\c2ccc(OC)c(O)c2)oc(=O)c1` [11-hydroxyyangonin], the log partition coefficient (logP) is listed as ~2.2.

As to `COc1cc2c(c(OC)c1OC)-c1c(cc(OC)c(OC)c1OC)C[C@](C)(O)[C@@H](C)C2` [(+)-schisandrin], the logP was ~5.

Consider `COc1cc2c(c(OC)c1OC)-c1c(cc(OC)c(OC)c1OC)C[C@H](C)[C@H](C)C2` [(-)-schisandrin A], for which the log partition coefficient (logP) was ~3.6.

On to `CC(/C=C/C=C(\C)C(=O)O[C@@H]1O[C@H](CO[C@@H]2O[C@H](CO)[C@@H](O)[C@H](O)[C@H]2O)[C@@H](O)[C@H](O)[C@H]1O)=C\C=C\C=C(C)\C=C\C=C(/C)C(=O)O[C@@H]1O[C@H](CO[C@@H]2O[C@H](CO)[C@@H](O)[C@H](O)[C@H]2O)[C@@H](O)[C@H](O)[C@H]1O` [alpha -crocin], for which the logP is ~-1.5. As for `COc1ccc([C@@]23CCC(=O)C[C@@H]2N(C)CC3)cc1OC` [mesembrine], the logP was ~1.5. Regarding `COc1nc2c(c(=O)n1C)n(C)c(=O)n2C` [methylliberine], the log partition coefficient (logP) is ~-0.083. On to `CC(=O)OC1C=CC(=O)N(C(=O)CCc2ccccc2)C1` (centres unmarked) [pipermethystine], for which the logP is ~1.8. Turning to `COc1cc([C@H]2Oc3cc(O)c4c(=O)c(O)c(-c5ccc(O)cc5)oc4c3O[C@@H]2CO)ccc1O` [rhodiolin], the logP is reported as ~2. For `COc1cc2c(c(OC)c1OC)-c1c(cc(OC)c(OC)c1OC)C[C@](C)(O)[C@@H](C)C2` [schisandrol A], the logP is ~3.4.

For `N#C[C@@]1(O[C@@H]2O[C@H](CO)[C@@H](O)[C@H](O)[C@H]2O)C=C[C@@H](O)C1` [tetraphyllin B], the logP is on record as ~-2.5. (-)-schisandrin C: the lipophilicity (logP) is listed as ~3.5. As to (R)-kawain, the logP is given as ~2.7.

On to bacopaside B, for which the lipophilicity (logP) was ~2.8. Turning to hericerin, the lipophilicity (logP) is ~6.4. Turning to herinacine A, the logP is ~2.5.

For schisandroside C, the logP is given as ~1.6. In the case of tortuosomine, the logP is recorded as ~3.
